Experimental findings from patent US10047034B2, “Polyhydroxylated pentacyclic triterpene acids as HMG-COA reductase inhibitors” (Prairie Berry Europe GmbH, priority 2012, dated 2018) are described below.

Assay [1] concerns the target T1, Human recombinant HMG-CoA reductase (Homo sapiens, UniProt P04035).
T1 sequence (P04035 426-888 limits assumed): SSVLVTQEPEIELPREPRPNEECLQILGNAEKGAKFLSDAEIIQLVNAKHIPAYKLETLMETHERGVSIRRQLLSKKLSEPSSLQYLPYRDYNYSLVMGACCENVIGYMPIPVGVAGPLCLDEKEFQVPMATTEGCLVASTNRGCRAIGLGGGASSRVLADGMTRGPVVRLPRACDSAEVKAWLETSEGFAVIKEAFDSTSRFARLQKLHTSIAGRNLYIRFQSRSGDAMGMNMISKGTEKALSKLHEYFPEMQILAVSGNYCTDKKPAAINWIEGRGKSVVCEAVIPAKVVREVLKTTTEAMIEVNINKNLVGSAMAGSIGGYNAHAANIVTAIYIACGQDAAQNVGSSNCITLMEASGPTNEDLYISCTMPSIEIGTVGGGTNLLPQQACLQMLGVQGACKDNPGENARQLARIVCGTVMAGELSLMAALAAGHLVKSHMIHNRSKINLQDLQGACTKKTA
In words: HMG-CoA reductase inhibition test ([14C]mevalonate formation). Conditions: for inhibition at 30 µM / inhibition at 3 µM: duplicates; for HMG-CoA reductase inhibiting activity (in words): own investigations. The format is biochemical. As to the method: Inhibition of HMG-CoA reductase was determined under following conditions. Human recombinant HMG-CoA reductase were pre-incubated with 35 ng/ml enzyme in reaction buffer, pH 7.5 (100 mM KH2PO4, 8 mM Glucose-6-Phosphate, 1 mM nicotinamide adenine dinucleotide phosphate, 4 mM ethylenediaminetetraacetic acid, 2 mM dithiothreitol, 0.6 Units glucose-6-phosphate dehydrogenase) for 15 minutes at 37° C. The reaction was initiated by addition of 2.5 μM [14C]HMG-CoA for another 20 minute incubation period and terminated by further addition of 1 N HCl. An aliquot was removed and then counted to determine the amount of [14C]Mevalonate formed. […] All samples were measured in duplicates.

Assay [2] relates to hamsters fed with a high-cholesterol diet. The assay is described as follows: In vivo food cholesterol reduction (hypocholesterolemic activity). Set-up: species or system golden Syrian hamsters. Conditions: oral once a day, extract 100 mg/kg, ezetimibe 1 mg/kg. As to the method:
The dry extract of example 1 was evaluated for possible hypocholesterolemic activity in hamsters fed with a high-cholesterol diet. Groups of 10 male golden Syrian hamsters were induced to hypercholesterolemia by a high cholesterol diet (g/100 g: 5.0 corn oil, 5.0 coconut oil, 0.2 cholesterol and 89.8 standard diet throughout the 28-day experimental period. After the test animals had been kept on the high cholesterol diet for 7 days, vehicle (1% Cremophor EL in phosphate buffered saline) and extract of example 1 (incorporated into said vehicle) were administered orally, starting on day 1, for 28 days at 100 mg/kg, once a day, were administered orally for 28 consecutive days. Ezetimibe, the positive control, was also administered orally (at 1 mg/kg) for 28 consecutive days. Blood was drawn in overnight fasted animals on day 1 (pre-treatment), day 8, day 15, and day 29 for measurements of serum total cholesterol (Total plasma cholesterol), high density lipoprotein (HDL), low density lipoprotein (LDL) and triglyceride (TG) levels. The measurement values on day 8, day 15, […] and day 29 were transformed into percentage. One-way ANOVA and Dunnett's test were used to ascertain difference between vehicle control and treated groups.

Marks after values point to notes of the source that are not given here.

`C[C@@H]1CC[C@]2(C(=O)O)CC[C@]3(C)C(=CC[C@@H]4[C@@]5(C)CC[C@@H](O)[C@](C)(CO)[C@@H]5CC[C@]43C)[C@@H]2[C@]1(C)O` [Barbinervic acid]: the inhibition at 30 µM in assay [1] was determined as 37%.
Turning to `C[C@@H]1CC[C@]2(C(=O)O)CC[C@]3(C)C(=CC[C@@H]4[C@@]5(C)C[C@@H](O)[C@@H](O)C(C)(C)[C@@H]5CC[C@]43C)[C@@H]2[C@]1(C)O` [Euscaphic acid], in assay [1], the inhibition at 3 µM came out at 91% and the “HMG-CoA reductase inhibiting activity (in words)” value was “strongest HMG-CoA reductase inhibiting activity”.
`O=C1[C@H](CC[C@H](O)c2ccc(F)cc2)[C@@H](c2ccc(O)cc2)N1c1ccc(F)cc1` [Ezetimibe]: the “LDL levels relative to day one” value amounted to 100% in assay [2] (t = day 1 (pre-treatment)), 22%* in assay [2] (t = day 15) and 15%* in assay [2] (t = day 29). Besides, the “Total plasma cholesterol levels relative to day one (pre-treatment)” value in assay [2] (t = day 1 (pre-treatment)) turned out to be 100%; in assay [2] (t = day 15) it was 61%*; in assay [2] (t = day 29) it was 41%*.
Regarding `CC[C@H](C)C(=O)O[C@H]1C[C@@H](C)C=C2C=C[C@H](C)[C@H](CC[C@@H]3C[C@@H](O)CC(=O)O3)[C@H]21` [Lovastatin], in assay [1], the inhibition at 3 µM was 100% and the inhibition at 30 µM was 100%.
For the molecule `C[C@@H]1CC[C@]2(C(=O)O)CC[C@]3(C)C(=CC[C@@H]4[C@@]5(C)CC[C@H](O)C(C)(C)[C@@H]5CC[C@]43C)[C@@H]2[C@]1(C)O` [Pomolic acid], in assay [1], the inhibition at 30 µM was found to be 25%.
For `O=c1c(O[C@@H]2O[C@H](CO)[C@H](O)[C@H](O)[C@H]2O)c(-c2ccc(O)c(O)c2)oc2cc(O)cc(O)c12` [Quercetin-3-O-beta-D-galactopyranoside], in assay [1], the inhibition at 3 µM came out at 75% and the “HMG-CoA reductase inhibiting activity (in words)” value was “very good HMG-CoA reductase inhibiting activity”.
With `C[C@H]1[C@H](C)CC[C@]2(C(=O)O)CC[C@]3(C)C(=CC[C@@H]4[C@@]5(C)CC[C@H](O)C(C)(C)[C@@H]5CC[C@]43C)[C@H]12` [Ursolic acid], in assay [1], the inhibition at 3 µM was 0% and the inhibition at 30 µM was 0%.
